Laboratory results reported in the OPERA property sets (Mansouri et al. 2018).

## COCN1C(=O)CN=C(c2ccccc2)c2cc(Cl)ccc21
  logP: 2.86

## CC12CC3CC(C1)CC(N)(C3)C2
  logP: 3.01

## CCCCCC[n+]1ccc(C)c(C)c1.[I-]
  logP: -1.51

## CC(=O)C(C#N)=NNc1ccc(Cl)c(Cl)c1
  logP: 4.56

## CNc1cc(Cc2cnc(N)nc2N)cc(N(C)C)c1OC
  logP: 1.56

## FC1C(Cl)C(Cl)C(Cl)C(Cl)C1Cl (configuration not stated)
  logP: 3.19

## CCc1c(OC)cc(Cc2cnc(N)nc2N)cc1OC
  logP: 2.72

## O=C(Nc1n[nH]c(NC(=O)C(F)(F)F)n1)C(F)(F)F
  logP: 0.62

## CON=CCCc1ccccc1
  logP: 2.14

## O=C(Nc1ccccc1)c1cc(N2CC2)c([N+](=O)[O-])cc1[N+](=O)[O-]
  logP: 2.23

## CC(=O)NC1CC1c1ccccc1 (configuration not stated)
  logP: 1.43

## Cc1c(N(C)C)cc(Cc2cnc(N)nc2N)cc1N(C)C
  logP: 2.06

## CON(C)C(=O)Nc1ccc(C(C)C)cc1
  logP: 2.95

## NC(=O)NC1OC(=O)c2ccccc21 (configuration not stated)
  logP: 0.49

## O=C(CNC(=O)c1ccccc1)Oc1cccc(F)c1
  logP: 2.58

## COc1c(Cl)cc(Cc2cnc(N)nc2N)cc1Cl
  logP: 2.78

## CCOC(=O)C(C#N)=NNc1ccc(Cl)c(C(F)(F)F)c1
  logP: 4.86

## CCOC(=O)CN(C(=O)CCl)c1ccccc1OC
  logP: 1.78

## CN(C)c1ccc2c(c1)C(c1ccccc1)=NCC(=O)N2
  logP: 2.43

## O=[N+]([O-])c1cnc(N=C2SCCN2CCO)s1
  logP: 1.28

## O=[N+]([O-])c1ccc(/C=C/c2nnc[nH]2)o1
  logP: 1.1

## COP(=O)(OC)Oc1ccc([N+](=O)[O-])c(C)c1
  logP: 1.69

## CCOC(=O)C(=Cc1cccc(Cl)c1)C(=O)OCC
  logP: 3.49

## O=C1CN=C(c2ccccc2F)c2cc([N+](=O)[O-])ccc2N1
  logP: 2.15

## CCOC(=O)c1ccc2cccccc1-2
  logP: 3.83

## O=S(=O)(Nc1ccc(F)cc1F)C(F)(F)F
  logP: 3.06

## COC(=O)C(C#N)=NNc1cc(Cl)c(Cl)cc1Cl
  logP: 5.15

## CCC(=O)c1ccc(OC(=O)NC)cc1
  logP: 1.55

## Cc1ccc(C(=N)c2ccc(C)cc2)cc1
  logP: 3.71

## Clc1cccc(NC2=NCCN2)c1Cl
  logP: 1.94

## CC1=Nc2c([N+](=O)[O-])cc(Cl)cc2S(=O)(=O)N1
  logP: 0.85

## Oc1nc2ccccc2nc1O
  logP: 0.2

## NNC(=O)NCc1ccccc1
  logP: -0.22

## CSCC1=C(C(=O)O)N2C(=O)C(NC(=O)Cc3cccs3)C2SC1 (configuration not stated)
  logP: 1.01

## CN(C)C(=O)CCc1ccco1
  logP: 0.62

## CCC(C)NC(=O)C=C(C)c1ccc(Cl)cc1 (configuration not stated)
  logP: 3.92

## Nc1cc(OCC(=O)O)ccc1Cl
  logP: 1.16

## CCOc1ccc2nc(S(=O)(=O)NC)sc2c1
  logP: 2.59

## O=[N+]([O-])c1cccc(OC2OC(CO)C(O)C(O)C2O)c1 (configuration not stated)
  logP: -0.51

## CCCCSC(C)(C)C(N)=O
  logP: 1.81

## OCC1OC(SCCCc2ccccc2)C(O)C(O)C1O (configuration not stated)
  logP: 0.38

## CC1=Nc2c(Br)cc(Cl)cc2S(=O)(=O)N1
  logP: 1.65

## CSC(C)=NOC(=O)N(C)SN(C)C(=O)c1cccc(Cl)c1
  logP: 2.7

## CC(C)CNCC(=O)NC(=O)C=[N+]=[N-]
  logP: 0.37

## CN(C)C(=O)OCc1ccccc1
  logP: 2.16

## CCCC(=O)Nc1ccc(C)cc1O
  logP: 2.26

## COC(=O)C(C#N)=NNc1cc(Cl)cc(Cl)c1
  logP: 4.5

## COc1ccc(CCCC(=O)O)cc1
  logP: 2.33

## COc1nc(-c2ccccc2)c2ccccc2n1
  logP: 3.5

## CC(=O)C(C#N)=NNc1ccc(SC(F)(F)F)cc1
  logP: 5.04

## O=S1(=O)NC(c2ccco2)=Nc2ccccc21
  logP: 1.06

## CCCOn1c(=O)[nH]c(C)c(SC#N)c1=O
  logP: -0.22

## CN=C1SC(=Cc2ccc([N+](=O)[O-])o2)C(=O)N1C
  logP: 1.42

## CC(=O)Nc1cccc(OC(=O)CNC(=O)c2ccccc2)c1
  logP: 1.7

## CN(C)C(=O)c1cc(N2CC2)c([N+](=O)[O-])cc1[N+](=O)[O-]
  logP: 0.63

## S=C=NCc1cccc2ccccc12
  logP: 4.42

## CN(C)C(=O)CCC(=O)OCC(=O)C1(O)CCC2C3CCC4=CC(=O)CCC4(C)C3C(O)CC21C (configuration not stated)
  logP: 2.03

## COc1ccc(Br)c(Cc2cnc(N)nc2N)c1
  logP: 2

## O=S1(=O)NC=Nc2cc(Cl)ccc21
  logP: 1.01

## CCCCCCCCCCCCCC[n+]1ccc(C)c(C)c1.[I-]
  logP: 2.93

## CCNC1CC2CC1c1ccccc12 (configuration not stated)
  logP: 2.72

## COC12C(COC(N)=O)C3=C(C(=O)C(C)=C(Nc4ncc(C)s4)C3=O)N1CC1NC12 (configuration not stated)
  logP: 1.16

## CSc1ccc2c(c1)C(c1ccccc1)=NCC(=O)N2C
  logP: 2.95

## Cc1ccccc1N1C(=O)CCC1=O
  logP: 0.29

## CCC(C)C(NC(C)=O)C(=O)NC (configuration not stated)
  logP: 0.14

## CNC(=O)Oc1cccc(C(=O)OC)c1
  logP: 1.42

## C[N+](C)(C)Cc1ccccn1.[Br-]
  logP: -3.4

## CS(=O)(=O)c1cccc(CC(=O)O)c1
  logP: 0.06

## CCOC(=O)C(=Cc1ccccc1Cl)C(=O)OCC
  logP: 3.15

## CC1=Nc2cc(N)c(Cl)cc2S(=O)(=O)N1
  logP: 0.63

## OCC1OC(Sc2ccccc2)C(O)C(O)C1O (configuration not stated)
  logP: -0.56

## CC(C)C1OC(=O)c2ccccc21 (configuration not stated)
  logP: 2.1

## CCCCCCN(SN(C)C(=O)ON=C(C)SC)C(=O)c1ccccc1
  logP: 4.2

## Cc1ccc(OC(=O)CNC(=O)c2ccccc2)cc1
  logP: 2.83

## CC1CCCN(N=O)C1 (configuration not stated)
  logP: 0.99

## CN(C)C(=O)COc1ccccc1
  logP: 0.8

## S=C=Nc1ccc(N=Nc2ccccc2)cc1
  logP: 5.55

## C[N+](C)(C)Cc1cccc(C(N)=O)c1.[Br-]
  logP: -2.8

## O=C(NC(CO)C(O)c1ccc([N+](=O)[O-])cc1)c1ccccc1 (configuration not stated)
  logP: 1.63

## CN1C(=O)OC(c2ccccc2)C1=O (configuration not stated)
  logP: 1.06

## COc1cc(-n2c(=O)cc(C)n2C)ncn1
  logP: 0.3

## COc1cc(Cc2cnc(N)nc2N)cc(OC)c1Br
  logP: 2.01

## CSc1ccc(NS(=O)(=O)C(F)(F)F)cc1
  logP: 3.74

## CC(=O)C(C#N)=NNc1cccc(Cl)c1
  logP: 3.9

## Nc1ncnc2ccccc12
  logP: 1.28

## CC1=Nc2ccc(C(F)(F)F)cc2S(=O)(=O)N1
  logP: 1.51

## CC(=O)Cn1ccnc1[N+](=O)[O-]
  logP: -0.34

## N#CC(=Cc1ccccc1)C(=O)Nc1ccccc1
  logP: 3.41

## O=[N+]([O-])c1cnc(N=C2NCC(O)CN2)s1 (configuration not stated)
  logP: 0.74

## O=[N+]([O-])c1cc[n+]([O-])c2c([N+](=O)[O-])cccc12
  logP: 0.76

## OCC1OC(Oc2cccc(C(F)(F)F)c2)C(O)C(O)C1O (configuration not stated)
  logP: 0.49

## CCc1ccc(O[Si]23OCCN(CCO2)CCO3)cc1
  logP: 0.56

## Cc1ncc([N+](=O)[O-])n1CC(O)CCl (configuration not stated)
  logP: 0.6

## O=C1OC(C2CCCCC2)c2ccccc21 (configuration not stated)
  logP: 3.34

## COc1ccc(OC(=O)CNC(=O)c2ccccc2)cc1
  logP: 2.28

## COc1cc(Cc2cnc(N)nc2N)cc(Cl)c1OC
  logP: 1.92

## CC1(C)SC2C(NC(=O)C(Cl)c3ccccc3)C(=O)N2C1C(=O)O (configuration not stated)
  logP: 2.3

## COC(=O)C1(n2ccnc2[N+](=O)[O-])CC(OC(C)=O)C(NC(C)=O)C(C(OC(C)=O)C(COC(C)=O)OC(C)=O)O1 (configuration not stated)
  logP: 0.41

## CC(=O)NNC(=O)c1ccccc1N=NN(C)C
  logP: 1.18

## Nc1cc([N+](=O)[O-])cc(Cl)c1O
  logP: 1.53

## [O-][n+]1ccccc1SCc1ccccc1
  logP: 1.24

## COc1cc(Cc2cnc(N)nc2N)cc2c1OCO2
  logP: 1.38

## CCCOn1c(=O)c(Br)c(C)n(C)c1=O
  logP: 0.72

## CCCCCCCCCCOn1c(=O)[nH]c(C)c(Br)c1=O
  logP: 4.65

## COc1cccc(NC=O)c1
  logP: 1.25

## N#Cc1ccc2nccnc2c1
  logP: 1.01

## CCNP(=O)(OC)Oc1cc(Cl)c(Cl)cc1Cl (configuration not stated)
  logP: 3.18

## S=c1[nH]cnc2[nH]cnc12
  logP: 0.01

## Cc1noc(-c2ccccn2)n1
  logP: 0.89

## NC(=O)Nc1ccc(Oc2ccc(Br)cc2)cc1
  logP: 3.7

## Nc1nc2ccccc2o1
  logP: 1.53

## COc1cc(Cc2cnc(N)nc2N)cc(OCc2ccccc2)c1OC
  logP: 2.37

## COc1cc(CC(C)N)c(OC)cc1Br (configuration not stated)
  logP: 2.58

## CCCCCCCCCCCCCC[n+]1ccccc1C.[I-]
  logP: 2.27

## O=C(O)COc1cc(F)cc(I)c1
  logP: 2.42

## CCCSc1nnc(C(C)C)c(=O)n1N
  logP: 2.12

## O=C(c1ccccc1)c1ccc(N=C=S)cc1
  logP: 4.88

## CCCNC1CC2CC1c1ccccc12 (configuration not stated)
  logP: 3.3

## CCCCCCCCCCCCCCCC[n+]1ccc(C)c(C)c1.[I-]
  logP: 3.16

## COc1cc(C)ccc1N=C1NCCN1
  logP: 1.64

## OCCCCCCn1nnc2ccccc21
  logP: 1.71

## CNC1=NC(=O)C(=CC=Cc2ccc([N+](=O)[O-])o2)S1
  logP: 1.35

## COc1c(N(C)C)cc(Cc2cnc(N)nc2N)cc1N(C)C
  logP: 2.05

## Nc1ncc(Cc2cc(Cl)c(Cl)cc2Cl)c(N)n1
  logP: 3.79

## CSC(C)=NOC(=O)N(C)SN(C)C(=O)c1ccc(Cl)cc1Cl
  logP: 3.2

## CS(=O)(=O)c1ccc(NS(=O)(=O)C(F)(F)F)cc1
  logP: 1.99

## O=NN(CCCl)C(=O)NC1CS(=O)(=O)CS(=O)(=O)C1
  logP: -0.94

## CC1(C)N=C(N)N=C(N)N1c1ccc(N)cc1
  logP: -0.59

## Cc1[nH]c(=O)n(O)c(=O)c1Br
  logP: -1.12

## CNC(=O)c1ccc(S(N)(=O)=O)cc1
  logP: -0.31

## CC(C)(C)c1cc(OC2OC(CO)C(O)C(O)C2O)cc(C(C)(C)C)c1 (configuration not stated)
  logP: 2.73

## COc1cc(S(=O)(=O)CCC(C)C)cc(OC)c1OC
  logP: 2.12

## CCC1(CC2COc3ccccc3O2)C(=O)NC(=O)NC1=O (configuration not stated)
  logP: 1.85

## CCCCNP(=O)(OC)Oc1cc(Cl)c(Cl)cc1Cl (configuration not stated)
  logP: 4.18

## O=C1CCCN1CCOc1ccc([N+](=O)[O-])cc1
  logP: 1.33

## COc1ccc(Cc2ccccc2C(N)=O)cc1
  logP: 1.63

## NC(=O)NN=CCCc1ccccc1
  logP: 2.32

## COc1cn[nH]c1
  logP: 0.37

## CSc1nc2ccc(Cl)cc2[nH]1
  logP: 3.22

## Clc1ccccc1-c1ccccc1Cl
  logP: 4.97

## CC(C)(C)NC(=O)NN
  logP: -0.81

## COc1cc(-n2nc(C)cc2OC)ncn1
  logP: 1.53

## COC12C(COC(N)=O)C3=C(C(=O)C(C)=C(N)C3=O)N1CC1C2N1C(=O)Cc1ccccc1 (configuration not stated)
  logP: 1.15

## COc1cc(Cc2cnc(N)nc2N)ccc1O
  logP: 0.64

## O=C1CN=C(c2ccccc2F)c2cc(Cl)ccc2N1
  logP: 2.7

## CCCCCCCC[n+]1ccccc1C.[I-]
  logP: -0.77

## CNc1ccc(C(=O)OCCN(C)C)cc1
  logP: 1.95
